Data on one compound can be found in patent US20040063663A1, “Acylated cyclodextrin: guest molecule inclusion complexes” (priority 2000, published 2004).

This series in a line: Thermal stability of triacetyl-β-CD (TGA). It counts as physicochemical. The method, then: In order to determine the stability of triacetyl-β-CD, a sample was heated to 400° C. at 20° C./min under nitrogen in a DuPont 2200 thermogravimetric spectrometer (FIG. 7). […] A sample of triacetyl-β-CD was then held at 300° C. for 35 minutes (FIG. 8). Even after extended heating at this temperature, only about 3.2% weight loss was observed.

For the compound `CC(=O)OC[C@H]1O[C@@H]2O[C@H]3[C@H](OC(C)=O)[C@@H](OC(C)=O)[C@@H](O[C@H]4[C@H](OC(C)=O)[C@@H](OC(C)=O)[C@@H](O[C@H]5[C@H](OC(C)=O)[C@@H](OC(C)=O)[C@@H](O[C@H]6[C@H](OC(C)=O)[C@@H](OC(C)=O)[C@@H](O[C@H]7[C@H](OC(C)=O)[C@@H](OC(C)=O)[C@@H](O[C@H]8[C@H](OC(C)=O)[C@@H](OC(C)=O)[C@@H](O[C@H]1[C@H](OC(C)=O)[C@H]2OC(C)=O)O[C@@H]8COC(C)=O)O[C@@H]7COC(C)=O)O[C@@H]6COC(C)=O)O[C@@H]5COC(C)=O)O[C@@H]4COC(C)=O)O[C@@H]3COC(C)=O` [triacetyl-β-CD, heptakis(2,3,6-tri-O-acetyl)-β-cyclodextrin], under “TGA, FIG. 7”, the “Temperature until which 10% weight loss is not observed” value stood at 372 °C. For the setting “heated to 400° C. at 20° C./min under nitrogen”, the “Weight loss observed until above 325° C.” value was “ca. 0.2%”. Also, the Weight loss entry (held at 300° C. for 35 minutes) is reported as “about 3.2%”.
